Tested on: orthotopic KPC-Luc tumors
Assay: orthotopic KPC-Luc pancreatic tumor model
Type: in vivo, mouse
Details: FIG. 21b
Excerpt: KPC.Luc cells were orthotopically implanted in the tail of the pancreas of C57BL/6 mice and treated with ANT008 and/or anti-PD-1 with n=9, 10, 8 and 11 in scrambled+IgG, ANT008+IgG, scrambled+anti-PD-1 and ANT008+anti-PD-1, respectively. (FIG. 21A) Schematic showing orthotopic implantation of KPC.Luc cells and treatment strategy with ANT008 and/or anti-PD-1. (FIG. 21B) Waterfall plot showing % change in tumor flux on day 22 relative to day 7 prior to start of treatment. (FIG. 21C) Total flux as measured by IVIS bioluminescent imaging in the different treatment groups. Isoflurane was used for anesthesia for bioluminescent imaging. Median flux represented as dashed gray line (----). Cross symbol (+) represents mice that were euthanized before day 25 due to ulceration of the tumor and circle symbol (∘) represent mouse that were imaged on day 26 via MRI imaging shown in FIG. 30. (FIG. 21D) Bar graph showing weight of pancreas on day 25 when the mice were euthanized. ‘Star’ shaped (⋆) data points indicate tumor free mice and dotted horizontal line (----) represents the average weight of healthy pancreas from naïve mice. […] P values in FIG. 21D were calculated using student ANOVA followed by Dunnett's post hoc test (comparing each treatment group with Scram+IgG). […]

KPRRPYTDNYTRLRKQMAVKKYLNLILN [ANT008]
mice in which tumors regressed, number of mice of group: 4/10 | mice in which tumors regressed (tumor flux day 22 relative to day 7): 40%
